Patent US10590365B2, “Compounds for a controlled release of active molecules” (FIRMENICH SA, priority 2013, dated 2020)

What was measured:
[1] = test system: Propionibacterium acnes ATCC 6919; assay: Incubation of pro-perfume glucuronide mixture with skin bacteria; remaining conjugate by LC-MS; type: cell-based; settings: After 5 days; for Glucuronide-conjugates remaining after incubation with Propionibacterium acnes (in percentage), Average: average of incubations 1-3; for Glucuronide-conjugates remaining after incubation with Propionibacterium acnes (in percentage): blank fixed as 100%
Experimental: (§1) The liberation of perfuming alcohols from the present invention's compounds of formula (I) was tested in vitro during incubation with defined skin bacteria strains.
(§2) c) Bacterial solutions: Two underarm bacterial isolates, Propionibacterium acnes ATCC 6919 and Staphylococcus warneri DSM 20316 (identified by 16S rDNA sequencing by Deutsche Sammlung von Mikroorganismen and ZellKulturen DSMZ, Germany), were cultivated on SCH agar at 37° C. during 72 h in anaerobic conditions and on TSA at 37° C. during 24 h, respectively.
One isolated colony of P. acnes from the pure primary culture on SCH agar was inoculated on a new SCH agar and incubated at 37° C., 72 h in anaerobic conditions. After incubation, the whole culture was dissociated by shaking in 20 ml of NaCl 0.9% then centrifuged 10 min at 5000 rpm at room temperature. The pellet was washed in NaCl 0.9% and concentrated two times in NaCl 0.9%.
(§3) A pro-perfume glucuronides mixture containing menthol glucuronide (6 mg/kg), phenethylol β-glucuronide (10.75 mg/kg) and raspberry ketone β-glucuronide (13 mg/kg) in water was incubated with either: • 500 μL of the previously described bacterial solution • 10 μL of commercial enzymes β-glucuronidase/arylsulfatase from Helix pomatia (RocheDiagnostic, Indianapolis, USA) and 490 μL of NaCl 0.9% as a positive control • 500 μl of NaCl 0.9% as a negative controlfor the incubation with bacteria.
(§4) Each solution was prepared in duplicate (in glass vials).
(§5) The vials were placed in a heating block at 37° C. under gentle stirring from 1 to 7 days depending on the bacteria solutions. At the end of the incubation time, vials were cooled down to room temperature, 150 μL was mixed with 50 μL of LC-MS solvent B, filtered through acrodisc and 1 μL was injected on LC-MS (peak areas considered were measured in SIM mode according to their respective molecular weights). Comparisons were made between glucuronides (HESI−) or glucosides (HESI+) areas in incubated solutions and glucuronides (HESI−) or glucosides (HESI+) areas in the blanks (fixed as 100%).

[2] = test system: Staphylococcus warneri DSM 20316; assay: Incubation of pro-perfume conjugates with skin bacteria; remaining conjugate by LC-MS; type: cell-based
Experimental: as §1, §2
Similarly, one colony of S. warneri from the pure primary culture on TSA was inoculated on a new TSA and incubated for 24 h at 37° C. After incubation, the whole culture was dissociated by shaking in 20 ml of NaCl 0.9% then centrifuged 15 min at 5000 rpm, 4° C. The pellet was washed in NaCl 0.9% and concentrated two times in NaCl 0.9%.
as §3, §4, §5

[3] = Table 2, After 1 day, incubation 1
[4] = Table 2, After 1 day, incubation 2
[5] = Table 3, After 1 day, incubation 1
[6] = Table 3, After 1 day, incubation 2
[7] = Table 3, After 5 day, incubation 1
[8] = Table 3, After 5 day, incubation 2

Row | Compound | Glucuronide-conjugates remaining after incubation with Propionibacterium acnes (in percentage), Average [1] | Glucuronide-conjugates remaining after incubation with Propionibacterium acnes (in percentage) ([1]; incubation 1) | Glucuronide-conjugates remaining after incubation with Propionibacterium acnes (in percentage) ([1]; incubation 2) | Glucuronide-conjugates remaining after incubation with Propionibacterium acnes (in percentage) ([1]; incubation 3) | Glucuronide-conjugates remaining after incubation with S. warneri (in percentage), Average ([2]; Table 2, After 1 day) | Glucuronide-conjugates remaining after incubation with S. warneri (in percentage) [2, 3] | Glucuronide-conjugates remaining after incubation with S. warneri (in percentage) [2, 4] | Glucuronide-conjugates remaining after incubation with S. warneri (in percentage), Average ([2]; Table 3, After 1 day) | Glucuronide-conjugates remaining after incubation with S. warneri (in percentage) [2, 5] | Glucuronide-conjugates remaining after incubation with S. warneri (in percentage) [2, 6] | Glucuronide-conjugates remaining after incubation with S. warneri (in percentage), Average ([2]; Table 3, After 5 day) | Glucuronide-conjugates remaining after incubation with S. warneri (in percentage) [2, 7] | Glucuronide-conjugates remaining after incubation with S. warneri (in percentage) [2, 8]
1 | CC1CCC(C(C)C)C(OC2O[C@H](C(=O)O)[C@@H](O)[C@H](O)[C@H]2O)C1 (some centres unmarked) [p-menthan-3-ol, glucopyranosiduronic acid 1-menthyl] | 7% | 5% | 9% | 7% | 0% | 1% | 0% | – | – | – | – | – | –
2 | COc1cc(C=O)ccc1O[C@@H]1O[C@H](C(=O)O)[C@@H](O)[C@H](O)[C@H]1O [β-D-glucopyranosiduronic acid 4-formyl-2-methoxyphenyl] | – | – | – | – | – | – | – | 100% | 84% | 96% | 0% | 0% | 0%
3 | CC(=O)CCc1ccc(O[C@@H]2O[C@H](C(=O)O)[C@@H](O)[C@H](O)[C@H]2O)cc1 [(4-hydroxyphenyl)-2-butanone-β-D-glucopyranosiduronic acid] | 58% | 61% | 58% | 57% | 0% | 0% | 0% | – | – | – | – | – | –
4 | C=CCc1ccc(O[C@@H]2O[C@H](C(=O)O)[C@@H](O)[C@H](O)[C@H]2O)c(OC)c1 [β-D-glucopyranosiduronic acid 2-methoxy-4-(2-propen-1-yl)phenyl] | – | – | – | – | – | – | – | 100% | 130% | 120% | 0% | 0% | 0%
5 | CC1CCC(C(C)C)C(O)C1 (centres unmarked) [menthol] | – | – | – | – | – | – | – | 74% | 72% | 77% | 34% | 36% | 31%
